This assay concerns IL-4 induced proliferation of CTLL cell line. Kind of assay: CTLL Proliferation Assay (IL-4). The assay is classed as cell-based, murine. As to conditions: CTLL cells, exogenous IL-4 (mIL-4), titred peptide; FIGS. 1A-1D, 2. As for the experimental part:
CTLL Proliferation Assay: The murine IL-2- and IL-4-responsive CTLL cell line was used to assess the ability of the gamma chain peptides to inhibit the binding of these cytokines to their respective receptors. The cell line proliferates in responses to exogenously added cytokine and inhibition of this proliferation by the peptides would be a result of blocking the cytokines from interacting with their receptors. Briefly, 5000 CTLL cells are added to the wells of a 96 well microtitre plate. Either 10 U/ml r-mIL-2 or 1 ng/ml r-mIL-4 are added to these wells along with titred amounts of the indicated peptides. Cultures are incubated at 37° C. for 24 hours and pulsed with ^3H-TdR for the final 6 hours to indicate amount of proliferation. Wells containing no peptide are deemed the positive response and well containing no peptide and no cytokine are deemed the background (bkg) proliferation. A percent response is calculated as follows: (CPM experimental-CPM bkg)/CPM positive response-CPM bkg). All data are expressed in this manner.

On to CLNLQNLC [gamma-5], for which the “effect on cell proliferation in response to exogenous IL-4” value is “inhibits cell proliferation”.

In the case of CNHEPRFLSC [gamma-4], the “effect on cell proliferation in response to exogenous IL-4” value is listed as “inhibits cell proliferation”.

The record behind these values is patent US6346602B1, “Peptide mimics of the cytokine receptor common γ chain and methods and compositions for making and using the same” (Thomas Jefferson University, priority 1997, dated 2002).
